As a reminder, the IC50 is the concentration at which inhibition is half-maximal. One may read the ED50 as the dose at which the effect has come halfway, by size or by number of responders.

Structures are written as SMILES. Structures can show the parent of a compound that is named as a salt.

The target in one assay is T1, human ROCK I (Homo sapiens, UniProt Q13464).
T1 construct: purchased Caruna Biosciences (sic)
Description: ROCK enzyme inhibition assay. Format: biochemical. As to the method:
ROCK enzyme inhibitory activity of the compounds of the present invention has been assayed as follow. A aqueous solution of Rho kinase substrate MYTP was added to 96-well plate. Following incubation for overnight at 4° C., the plate was blocked by using blocking buffer containing BSA. To the plate was added reaction buffer containing each concentration of compound, suitable concentration of human ROCK I (Caruna Biosciences), ATP, β-glycerol phosphate, EGTA, sodium orthovanadate and DTT, and then the plate was incubated for 1 hour. After washing the plate by washing buffer, anti-phosphothreonin antibody was added to the plate, and then the plate was incubated for 1 hour. After washing the plate by washing buffer again, HRP-conjugated anti-phosphorylated protein antibody was added to the plate, and then the plate was incubated for 1 hour. After washing the plate by washing buffer again, calorimetric substrate TMB microwell peroxidase substrate was added to the plate, and then the plate was incubated for appropriate time. After incubation, H2SO4 was added to the plate to stop the reaction, and then absorbance (450 nm) was measured by using spectromether. Based on the absorbance for each compound, the data is fit using Prism software to obtain a IC50 value.

Assay [1] has as its system Male Wistar rats. Description: Effects on hindlimb blood flow (laser Doppler). Format: in vivo, rat. Conditions: 10 mg/kg p.o. From the text:
As one of the study to clarify the usefulness of the compounds of the present invention for peripheral arterial disease, we conducted a study to evaluate the effects of the compounds on hindlimb blood flow in rats.
Male Wistar rats were anesthetized by intraperitoneal pentobarbital injection (Kanto chemical, Japan) after oral administration of compounds. Rats were placed on a heating plate for subsequent hindlimb blood flow analysis. We measured hindlimb blood flow using a laser Doppler blood flow meter (PeriScan System, Stockholm, Sweden). After the laser Doppler images were recorded, the average perfusion values of both limbs were calculated, and evaluated the effects of compounds on hindlimb blood flow. Each experiment was performed in about 4 animals.

The subject of assay [2] is Male SD rats, intra-articular MIA in right knee. Description: Changes in hindlimb weight distribution, monosodium iodoacetate (MIA) osteoarthritis model. Conditions: Rattus norvegicus, 504 h; oral administration; three weeks after MIA injection; incapacitance tester. The assay is classed as in vivo. From the text: As intra-articular injection of monosodium iodoacetate (MIA) induced human osteoarthritis-like histopathological changes in knee joint, this model would be very useful for the study of human osteoarthritis. Recently, it is reported the clinical scores of the joint pain were closely correrated to the grade of histological findings (J Vet Med Sci 65, 1195, 2003) and this model may be useful for estimation of therapeutic effects of pain with osteoarthritis.
Male SD rats were anesthetized with halothane (Takeda, Japan) and given single intra-articular injection of 1 mg of monosodium iodoacetate (MIA; Sigma, St. Louis, USA) through the infrapatellar ligament of the right knee. MIA was dissolved with physiologic saline and administered in a volume of 50 ul using a 27-gauge, 0.5-inch needle. Three weeks after the injection, hindlimb weight distribution was determined using an incapacitance tester (Linton Instrumentation, Norfork, UK). Rats were allowed to acclimate to the testing apparatus and when stationary, readings were taken over a 5 s period. […] Each group in each experiment were performed in about 8 animals.

Assay [3] deals with Female SD rats, bradykinin injected into knee joint cavity. Description: Pain alleviation effect on bradykinin induced joint pain model. The assay is classed as in vivo, rat. As to the method:
Bradykinin is known to be one of the important pain-related mediators in various pain and especially, sodium hyaluronate which is useful for pain in osteoarthritis is reported to be effective in bradykinin-induced joint pain model. Therefore, we examined effects of compounds in the model.
The making of the joint pain model and evaluation of a level of pain was conducted essentially based on the method described in Folia pharmacol. japon., 92, 17-27 (1988). Female SD rats (6-7 weeks old, Charles River Japan, Inc.) were anesthetized with halothane (Wako). Compound of the above Example were administrated orally to the rat by using oral sonde for rat. 60 min after administration of the compound, saline solution of bradykinin was injected into knee joint cavity of hind limb of rat (3 uM/site/50 ul), and then the response to pain of the rat after administration of bradykinin was observed. Level of pain was scored as five grade point (0-4) as follow: 0: no lameness to lameness for 10 seconds; 1: lameness for 10 to 30 seconds; 2: lift of the limb within 10 seconds or lameness for 31 or more seconds; 3: three-legged gait within 10 seconds followed by lameness; 4: three-legged gait for 10 or more seconds followed by lameness. About 10 rat models were used in each experimental group. It was confirmed that administration of bradykinin leads to response to pain scored as about 3.

For assay [4], the system named is Male Wistar rats. In words: Inhibitory effects on phenylephrine-induced elevation of urethral pressure. The assay is classed as in vivo, rat. Conditions: i.v.; phenylephrine 30 ug/kg i.v. From the text: To evaluate the usefulness of the compounds of the present invention for urinary dysfunction associated with benign prostatic hyperplasia, we investigated the inhibitory effects of the intravenous administration of the compounds on phenylephrine-induced elevation of the urethral pressure in rats.
Male Wistar rats were anesthetized with urethane (SIGMA, USA). After midline abdominal incision, catheter to measure the urethral pressure (3.5 Fr, Millar, USA) was inserted into the urethra from top of the bladder. After confirming the Phenylephrine (30 ug/kg i.v.)-induced elevation of the urethral pressure, compounds were administered intravenously in increasing doses. Every 5 min after administration of compounds, Phenylephrine (30 ug/kg i.v.) was injected, and the inhibitory effects of compounds on phenylephrine-induced elevation of urethral pressure were evaluated. Each experiment was performed in about 4 animals.

T1 sequence (Q13464 whole entry): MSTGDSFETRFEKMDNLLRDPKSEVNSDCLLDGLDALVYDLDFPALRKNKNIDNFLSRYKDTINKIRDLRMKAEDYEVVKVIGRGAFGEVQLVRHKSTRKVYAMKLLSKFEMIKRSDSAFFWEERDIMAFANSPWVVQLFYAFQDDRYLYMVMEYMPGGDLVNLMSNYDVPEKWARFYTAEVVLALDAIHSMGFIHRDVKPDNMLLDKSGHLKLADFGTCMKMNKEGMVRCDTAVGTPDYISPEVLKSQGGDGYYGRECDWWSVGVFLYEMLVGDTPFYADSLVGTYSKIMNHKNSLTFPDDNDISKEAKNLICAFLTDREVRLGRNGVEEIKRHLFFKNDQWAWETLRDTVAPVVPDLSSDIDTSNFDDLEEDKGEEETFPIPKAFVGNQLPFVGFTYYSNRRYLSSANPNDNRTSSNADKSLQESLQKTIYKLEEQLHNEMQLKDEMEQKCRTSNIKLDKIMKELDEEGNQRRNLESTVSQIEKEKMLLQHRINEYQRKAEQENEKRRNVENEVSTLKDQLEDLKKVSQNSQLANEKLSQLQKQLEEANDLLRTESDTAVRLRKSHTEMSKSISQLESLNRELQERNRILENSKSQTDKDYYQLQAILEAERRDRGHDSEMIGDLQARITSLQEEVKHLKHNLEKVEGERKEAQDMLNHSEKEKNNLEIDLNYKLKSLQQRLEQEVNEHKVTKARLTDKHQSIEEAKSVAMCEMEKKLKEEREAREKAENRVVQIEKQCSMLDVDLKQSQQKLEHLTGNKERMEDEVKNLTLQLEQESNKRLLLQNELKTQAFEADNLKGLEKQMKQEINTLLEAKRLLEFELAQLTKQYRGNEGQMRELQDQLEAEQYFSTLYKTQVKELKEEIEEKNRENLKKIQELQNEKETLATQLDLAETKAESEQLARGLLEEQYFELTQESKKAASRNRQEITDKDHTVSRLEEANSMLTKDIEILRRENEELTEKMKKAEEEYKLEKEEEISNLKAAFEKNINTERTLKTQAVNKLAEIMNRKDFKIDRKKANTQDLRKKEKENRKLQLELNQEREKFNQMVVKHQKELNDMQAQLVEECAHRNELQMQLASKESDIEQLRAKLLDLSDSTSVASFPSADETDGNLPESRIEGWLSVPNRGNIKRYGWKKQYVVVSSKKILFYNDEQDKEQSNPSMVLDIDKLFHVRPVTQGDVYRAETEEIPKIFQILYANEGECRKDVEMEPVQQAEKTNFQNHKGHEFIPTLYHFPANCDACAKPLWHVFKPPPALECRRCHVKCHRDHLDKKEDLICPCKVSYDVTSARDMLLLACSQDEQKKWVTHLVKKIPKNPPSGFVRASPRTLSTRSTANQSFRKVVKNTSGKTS

`O=C(NCc1ccccc1)Nc1ccc(-c2ccncc2)cc1` [Example 1, 1-benzyl-3-[4-(4-pyridinyl)phenyl]urea] gave an IC50 on human ROCK I of 342 nM.
On the same count and under the same terms, for `C[C@@H](NC(=O)Nc1ccc(-c2ccncc2)cc1)c1ccccc1` [Example 3, 1-[(1R)-1-phenylethyl]-3-[4-(4-pyridinyl)phenyl]urea] the value was 240 nM.
For the compound `O=C(Nc1ccc(-c2ccncc2)cc1)N[C@H](CO)c1ccccc1` [Example 4, 1-[(1S)-2-hydroxy-1-phenylethyl]-3-[4-(4-pyridinyl)phenyl]urea], the “% of increase of blood flow” value in the assay with Male Wistar rats [1] is greater than 130%. Also, on human ROCK I, the IC50 turned out to be 122 nM. Further, the ED50 in assay [2] was less than 3 mg/kg.
`Cl.O=C(CNc1ccccc1)Nc1ccc(-c2ccncc2)cc1` [Example 26, 2-anilino-N-[4-(4-pyridinyl)phenyl]acetamide hydrochloride] registered an IC50 against human ROCK I of 77 nM. Further, in assay [3] (32 mg/kg orally, 60 min before bradykinin, grade 0-4, vehicle 2.7), the pain score was found to be 1.4. Besides, the bradykinin-induced pain responses entry in assay [3] (oral administration, dose dependence) is “dose dependently improved”.
`N[C@@H](Cc1ccccc1)C(=O)Nc1ccc(-c2ccncc2)cc1` [Example 53, (2S)-2-amino-3-phenyl-N-[4-(4-pyridinyl)phenyl]propanamide dihydrochloride] came in with an IC50 at human ROCK I of 18 nM.
In the case of `N[C@H](Cc1ccccc1)C(=O)Nc1ccc(-c2ccncc2)cc1` [Example 54, (2R)-2-amino-3-phenyl-N-[4-(4-pyridinyl)phenyl]propanamide], in the assay with Male Wistar rats [1], the “% of increase of blood flow” value is greater than 130%. In addition, the half-inhibitory concentration (IC50) against human ROCK I was determined as 10 nM. Moreover, the ED50 in assay [2] was less than 3 mg/kg.
With `N[C@@H](Cc1ccccc1)C(=O)N1CCc2cc(-c3ccncc3)ccc21` [Example 58, (2S)-1-oxo-3-phenyl-1-[5-(4-pyridinyl)-2,3-dihydro-1H-indol-1-yl]-2-propanamine], on human ROCK I, the IC50 was 53 nM. Also, in assay [2], the ED50 was less than 3 mg/kg.
As for `O=C(Nc1ccc(-c2ccncc2)cc1)N[C@H](CO)c1cccs1` [Example 67, 1-[(1R)-2-hydroxy-1-(2-thienyl)ethyl]-3-[4-(4-pyridinyl)phenyl]urea], the “% of increase of blood flow” value in the assay on Male Wistar rats [1] is listed as greater than 130%. Further, the IC50 against human ROCK I turned out to be 112 nM. The same compound showed an ED50 in assay [2] of less than 3 mg/kg.
The compound `O=C(Nc1ccc(-c2ccncc2)cc1)N[C@H](CO)c1ccccc1C(F)(F)F` [Example 72, 1-{(1S)-2-hydroxy-1-[2-(trifluoromethyl)phenyl]ethyl}-3-[4-(4-pyridinyl)phenyl]urea] displayed a half-maximal inhibitory concentration (IC50) against human ROCK I of 25 nM.
Still for that read-out and setting: with `O=C(Nc1ccc(-c2ccncc2)cc1)N[C@@H](CO)Cc1ccccc1` [Example 73, 1-[(1R)-1-benzyl-2-hydroxyethyl]-3-[4-(4-pyridinyl)phenyl]urea] the figure was 84 nM.
As to `N[C@H](Cc1cccc(F)c1)C(=O)Nc1ccc(-c2ccncc2)cc1` [Example 86, 3-fluoro-N-[4-(4-pyridinyl)phenyl]-D-phenylalaninamide], the “% of increase of blood flow” value in the assay with Male Wistar rats [1] is reported as greater than 130%. This compound also showed an IC50 at human ROCK I of 5 nM.
Regarding `CN[C@H](Cc1ccccc1)C(=O)Nc1ccc(-c2ccncc2)cc1` [Example 98, N-alpha-methyl-N-[4-(4-pyridinyl)phenyl]-D-phenylalaninamide], the “% of increase of blood flow” value in the assay on Male Wistar rats [1] is reported as greater than 130%. At human ROCK I, this compound returned an IC50 of 21 nM. This compound also yielded an ED50 in assay [2] of less than 3 mg/kg.
The corresponding values for `N[C@@H](C(=O)Nc1ccc(-c2ccncc2)cc1)c1ccccc1` [Example 108, (2R)-2-amino-2-phenyl-N-[4-(4-pyridinyl)phenyl]acetamide] are greater than 130%, 14 nM and less than 3 mg/kg.
For the compound `N[C@H](C(=O)Nc1ccc(-c2ccncc2)cc1)c1ccccc1` [Example 109, (2S)-2-amino-2-phenyl-N-[4-(4-pyridinyl)phenyl]acetamide], the IC50 on human ROCK I was found to be 12 nM. Moreover, in the assay on Male Wistar rats [4], the “Inhibition of elevation in urethral pressure ED30” value (shortened to “Inhibition of elevation”) is less than 1 mg/kg.
At human ROCK I, `O=C(Nc1ccc(-c2ccncc2)cc1)C(c1ccccc1)N1CCOCC1` (centres unmarked) [Example 119, 2-morpholin-4-yl-2-phenyl-N-[4-(4-pyridinyl)phenyl]acetamide] gave an IC50 of 212 nM. Besides, in assay [2], the ED50 was less than 3 mg/kg.
`Nc1nccc(-c2ccc3c(c2)CCN3C(=O)[C@@H](N)Cc2ccccc2)n1` [Example 151, 4-{1-[(2S)-2-amino-3-phenylpropanoyl]-2,3-dihydro-1H-indol-5-yl}pyrimidin-2-amine] displayed an IC50 on human ROCK I of 86 nM. In the assay on Male Wistar rats [4], the “Inhibition of elevation” value was less than 1 mg/kg.
Regarding `Nc1nccc(-c2ccc(NC(=O)[C@H](N)c3ccccc3)cc2)n1` [Example 154, (2R)-2-amino-N-[4-(2-aminopyrimidin-4-yl)phenyl]-2-phenylacetamide], in the assay on Male Wistar rats [1], the “% of increase of blood flow” value is reported as greater than 130%. The same compound displayed an IC50 against human ROCK I of 42 nM. For the same compound, the ED50 in assay [2] was less than 3 mg/kg. Besides, the “Inhibition of elevation” value with Male Wistar rats [4] is listed as less than 1 mg/kg.
Regarding `Nc1nccc(-c2ccc(NC(=O)[C@H](N)c3cccs3)cc2)n1` [Example 155, (2S)-2-amino-N-[4-(2-aminopyrimidin-4-yl)phenyl]-2-(2-thienyl)acetamide], the concentration for half-maximal inhibition (IC50) on human ROCK I is 72 nM.
